# Results from publication PMC7029132, “The pentose phosphate pathway of cellulolytic clostridia relies on 6-phosphofructokinase instead of transaldolase” (The Journal of Biological Chemistry, 2019).
# Biological target: T1, rabbit aldolase (Oryctolagus cuniculus, UniProt P00883)
# T1 construct: gene ALDOA; commercial native enzyme (Sigma A8811)
# T1 sequence (P00883 2-364): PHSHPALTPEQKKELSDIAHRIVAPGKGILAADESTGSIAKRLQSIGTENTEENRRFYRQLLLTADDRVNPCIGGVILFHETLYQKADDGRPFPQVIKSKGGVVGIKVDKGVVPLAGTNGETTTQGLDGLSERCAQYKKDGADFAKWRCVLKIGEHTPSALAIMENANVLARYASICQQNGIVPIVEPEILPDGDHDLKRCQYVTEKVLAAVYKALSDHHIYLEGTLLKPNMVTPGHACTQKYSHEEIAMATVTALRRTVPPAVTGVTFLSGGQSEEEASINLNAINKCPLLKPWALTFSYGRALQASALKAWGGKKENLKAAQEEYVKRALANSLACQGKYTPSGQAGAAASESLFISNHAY
# Assay: LC-MS time course of E4P and DHAP formation, SBP made in situ by PPi-PFK
# Format: biochemical
# Details: 100 mM Tris-HCl pH 7 at 55 °C, 5 mM MgCl2, 5 mM PPi, 1 mM S7P, 4 units aldolase
compound,measurement,value
O=C(COP(=O)(O)O)[C@@H](O)[C@H](O)[C@H](O)[C@H](O)COP(=O)(O)O [SBP],"LC-MS time course of E4P and DHAP formation, SBP made in situ by PPi-PFK",rabbit aldolase was able to convert the formed SBP to E4P and DHAP
